Patent publication US9073855B2, “BCL-2 selective apoptosis-inducing agents for the treatment of cancer and immune diseases” (AbbVie Inc., priority 2008, dated 2015)

Assays:
[1] = target: GST-Bcl-XL (Homo sapiens, UniProt Q07817); experiment: TR-FRET binding assay, GST-Bcl-XL with F-Bak peptide probe; details: TR-FRET Binding Affinity
In short: (§1)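 Displacement of a fluorescein-labelled Bak peptide from the GST-tagged protein was followed by time-resolved FRET with a terbium anti-GST donor after 3 h incubation at room temperature. Inhibition constants were calculated with Wang's equation.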

[2] = target: GST-Bcl-2 (Homo sapiens, UniProt P10415); experiment: TR-FRET binding assay, GST-Bcl-2 with F-Bak peptide probe; details: for Ki: TR-FRET Binding Affinity; for Binding selectivity ratio (Bcl-XL Ki/Bcl-2 Ki): TR-FRET, Bcl-XL Ki divided by Bcl-2 Ki
Sequence of GST-Bcl-2 (P10415 whole entry): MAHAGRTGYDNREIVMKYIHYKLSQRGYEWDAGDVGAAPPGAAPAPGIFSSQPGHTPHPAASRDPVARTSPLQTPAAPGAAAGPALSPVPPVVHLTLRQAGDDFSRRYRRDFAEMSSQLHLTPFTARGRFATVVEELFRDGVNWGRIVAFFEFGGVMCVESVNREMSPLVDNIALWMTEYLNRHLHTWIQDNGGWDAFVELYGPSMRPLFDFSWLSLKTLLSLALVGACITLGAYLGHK
In short: as §1

Sequence of GST-Bcl-XL (Q07817 whole entry): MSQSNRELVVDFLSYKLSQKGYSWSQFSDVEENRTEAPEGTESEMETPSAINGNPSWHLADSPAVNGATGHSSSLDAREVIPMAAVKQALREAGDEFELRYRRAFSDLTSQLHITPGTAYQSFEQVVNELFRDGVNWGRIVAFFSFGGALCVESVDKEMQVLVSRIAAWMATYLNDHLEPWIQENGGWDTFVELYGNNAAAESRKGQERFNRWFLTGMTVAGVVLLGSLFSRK

Row | Compound | Ki [1] [nM] | Ki [2] [nM] | Binding selectivity ratio (Bcl-XL Ki/Bcl-2 Ki) [2]
1 | CN1CCC(CNc2ccc(S(=O)(=O)NC(=O)c3ccc(N4CCN(CC5=C(c6ccc(Cl)cc6)CC(C)(C)CC5)CC4)cc3Oc3cccc4[nH]cnc34)cc2[N+](=O)[O-])CC1 [Example 454, 2-(1H-benzimidazol-4-yloxy)-4-(4-{[2-(4-chlorophenyl)-4,4-dimethylcyclohex-1-en-1-yl]methyl}piperazin-1-yl)-N-[(4-{[(1-methylpiperidin-4-yl)methyl]amino}-3-nitrophenyl)sulfonyl]benzamide] | 18.9 | 0.026 | –
2 | COCCOCCN1CCO[C@H](CNc2ccc(S(=O)(=O)NC(=O)c3ccc(N4CCN(CC5=C(c6ccc(Cl)cc6)CC(C)(C)CC5)CC4)cc3Oc3cccc4[nH]cnc34)cc2[N+](=O)[O-])C1 [Example 455, 2-(1H-benzimidazol-4-yloxy)-4-(4-{[2-(4-chlorophenyl)-4,4-dimethylcyclohex-1-en-1-yl]methyl}piperazin-1-yl)-N-({4-[({(2R)-4-[2-(2-methoxyethoxy)ethyl]morpholin-2-yl}methyl)amino]-3-nitrophenyl}sulfonyl)benzamide] | 0.619 | 0.004 | 139.4
3 | CC1(C)CCC(CN2CCN(c3ccc(C(=O)NS(=O)(=O)c4ccc(NCC5CCC(F)(F)CC5)c([N+](=O)[O-])c4)c(Oc4cccc5[nH]cnc45)c3)CC2)=C(c2ccc(Cl)cc2)C1 [Example 456, 2-(1H-benzimidazol-4-yloxy)-4-(4-{[2-(4-chlorophenyl)-4,4-dimethylcyclohex-1-en-1-yl]methyl}piperazin-1-yl)-N-[(4-{[(4,4-difluorocyclohexyl)methyl]amino}-3-nitrophenyl)sulfonyl]benzamide] | 0.54 | < 0.01 | 54.0
4 | CC(=O)N1CCOC(CNc2ccc(S(=O)(=O)NC(=O)c3ccc(N4CCN(CC5=C(c6ccc(Cl)cc6)CC(C)(C)CC5)CC4)cc3Oc3cccc4[nH]cnc34)cc2[N+](=O)[O-])C1 (stereo not shown) [Example 457, N-[(4-{[(4-acetylmorpholin-2-yl)methyl]amino}-3-nitrophenyl)sulfonyl]-2-(1H-benzimidazol-4-yloxy)-4-(4-{[2-(4-chlorophenyl)-4,4-dimethylcyclohex-1-en-1-yl]methyl}piperazin-1-yl)benzamide] | 331 | 0.045 | 7413.6
5 | CC1(C)CCC(CN2CCN(c3ccc(C(=O)NS(=O)(=O)c4ccc(NCC5CN(S(C)(=O)=O)CCO5)c([N+](=O)[O-])c4)c(Oc4cccc5[nH]cnc45)c3)CC2)=C(c2ccc(Cl)cc2)C1 (stereo not shown) [Example 458, 2-(1H-benzimidazol-4-yloxy)-4-(4-{[2-(4-chlorophenyl)-4,4-dimethylcyclohex-1-en-1-yl]methyl}piperazin-1-yl)-N-{[4-({[4-(methylsulfonyl)morpholin-2-yl]methyl}amino)-3-nitrophenyl]sulfonyl}benzamide] | 2.37 | < 0.01 | 237.2
6 | CC1(C)CCC(CN2CCN(c3ccc(C(=O)NS(=O)(=O)c4cnc(OCC5(F)CCN(C(CF)CF)CC5)c(C(F)(F)F)c4)c(Oc4cccc5[nH]ncc45)c3)CC2)=C(c2ccc(Cl)cc2)C1 [Example 459, 4-(4-{[2-(4-chlorophenyl)-4,4-dimethylcyclohex-1-en-1-yl]methyl}piperazin-1-yl)-N-{[6-({4-fluoro-1-[2-fluoro-1-(fluoromethyl)ethyl]piperidin-4-yl}methoxy)-5-(trifluoromethyl)pyridin-3-yl]sulfonyl}-2-(1H-indazol-4-yloxy)benzamide] | 5.42 | < 0.01 | 541.6
7 | CC1(C)CCC(CN2CCN(c3ccc(C(=O)NS(=O)(=O)c4ccc(NCC5CCOCC5)c([N+](=O)[O-])c4)c(Oc4ccccc4)c3)CC2)=C(c2ccc(Cl)cc2)C1 [Example 460, 4-(4-{[2-(4-chlorophenyl)-4,4-dimethylcyclohex-1-en-1-yl]methyl}piperazin-1-yl)-N-({3-nitro-4-[(tetrahydro-2H-pyran-4-ylmethyl)amino]phenyl}sulfonyl)-2-phenoxybenzamide] | 29 | 0.049 | –
